Test [1] addresses T1, Toll-like receptor 8 (Homo sapiens, UniProt Q9NR97).
T1 sequence (Q9NR97 whole entry): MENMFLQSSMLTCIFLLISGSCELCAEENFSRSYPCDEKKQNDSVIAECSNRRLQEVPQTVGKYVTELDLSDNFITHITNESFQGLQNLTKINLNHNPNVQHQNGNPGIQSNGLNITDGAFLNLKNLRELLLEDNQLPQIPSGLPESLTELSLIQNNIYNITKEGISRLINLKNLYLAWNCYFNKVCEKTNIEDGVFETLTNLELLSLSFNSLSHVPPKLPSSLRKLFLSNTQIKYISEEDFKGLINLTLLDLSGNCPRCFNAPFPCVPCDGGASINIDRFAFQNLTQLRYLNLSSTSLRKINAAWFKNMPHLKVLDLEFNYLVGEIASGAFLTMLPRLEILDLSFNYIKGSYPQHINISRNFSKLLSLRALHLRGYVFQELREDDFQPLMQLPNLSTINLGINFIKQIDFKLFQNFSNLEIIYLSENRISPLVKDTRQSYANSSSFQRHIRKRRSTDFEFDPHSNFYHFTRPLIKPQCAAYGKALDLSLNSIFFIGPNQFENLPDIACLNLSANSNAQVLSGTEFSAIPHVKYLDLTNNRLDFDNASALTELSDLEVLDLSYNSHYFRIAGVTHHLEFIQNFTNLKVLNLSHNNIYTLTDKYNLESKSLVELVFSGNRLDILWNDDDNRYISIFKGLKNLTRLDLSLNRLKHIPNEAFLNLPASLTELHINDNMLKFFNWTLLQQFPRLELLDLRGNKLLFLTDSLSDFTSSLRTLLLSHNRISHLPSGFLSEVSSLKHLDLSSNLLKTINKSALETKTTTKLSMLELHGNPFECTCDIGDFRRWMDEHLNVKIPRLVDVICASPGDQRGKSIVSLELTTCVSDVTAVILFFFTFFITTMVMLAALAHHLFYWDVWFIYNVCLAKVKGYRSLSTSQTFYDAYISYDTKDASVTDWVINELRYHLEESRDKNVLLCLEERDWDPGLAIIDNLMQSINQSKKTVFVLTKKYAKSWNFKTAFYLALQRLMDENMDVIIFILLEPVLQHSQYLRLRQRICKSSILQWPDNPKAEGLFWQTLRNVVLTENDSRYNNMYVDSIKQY
Put plainly: (§1) Pharmacological Assay: For TLR8 and TLR7 activity testing, HEK-Blue human TLR8 or TLR7 cells (Invivogen, San Diego, Calif., USA) are used, respectively. These cells are designed for studying the stimulation of human TLR8 or TLR7 by monitoring the activation of NF-κB. A SEAP (secreted embryonic alkaline phosphatase) reporter gene is placed under the control of the IFN-b minimal promoter fused to five NF-κB and AP-1-binding sites. Therefore the reporter expression is regulated by the NF-κB promoter upon stimulation of human TLR8 or TLR7 for 20 hours. The cell culture supernatant SEAP reporter activity was determined using Quanti Blue kit (Invivogen, San Diego, Ca, USA) at a wavelength of 640 nm, a detection medium that turns purple/blue in the presence of alkaline phosphatase.

The target of test [2] is T2, Toll-like receptor 7 (Homo sapiens, UniProt Q9NYK1).
T2 sequence (Q9NYK1 whole entry): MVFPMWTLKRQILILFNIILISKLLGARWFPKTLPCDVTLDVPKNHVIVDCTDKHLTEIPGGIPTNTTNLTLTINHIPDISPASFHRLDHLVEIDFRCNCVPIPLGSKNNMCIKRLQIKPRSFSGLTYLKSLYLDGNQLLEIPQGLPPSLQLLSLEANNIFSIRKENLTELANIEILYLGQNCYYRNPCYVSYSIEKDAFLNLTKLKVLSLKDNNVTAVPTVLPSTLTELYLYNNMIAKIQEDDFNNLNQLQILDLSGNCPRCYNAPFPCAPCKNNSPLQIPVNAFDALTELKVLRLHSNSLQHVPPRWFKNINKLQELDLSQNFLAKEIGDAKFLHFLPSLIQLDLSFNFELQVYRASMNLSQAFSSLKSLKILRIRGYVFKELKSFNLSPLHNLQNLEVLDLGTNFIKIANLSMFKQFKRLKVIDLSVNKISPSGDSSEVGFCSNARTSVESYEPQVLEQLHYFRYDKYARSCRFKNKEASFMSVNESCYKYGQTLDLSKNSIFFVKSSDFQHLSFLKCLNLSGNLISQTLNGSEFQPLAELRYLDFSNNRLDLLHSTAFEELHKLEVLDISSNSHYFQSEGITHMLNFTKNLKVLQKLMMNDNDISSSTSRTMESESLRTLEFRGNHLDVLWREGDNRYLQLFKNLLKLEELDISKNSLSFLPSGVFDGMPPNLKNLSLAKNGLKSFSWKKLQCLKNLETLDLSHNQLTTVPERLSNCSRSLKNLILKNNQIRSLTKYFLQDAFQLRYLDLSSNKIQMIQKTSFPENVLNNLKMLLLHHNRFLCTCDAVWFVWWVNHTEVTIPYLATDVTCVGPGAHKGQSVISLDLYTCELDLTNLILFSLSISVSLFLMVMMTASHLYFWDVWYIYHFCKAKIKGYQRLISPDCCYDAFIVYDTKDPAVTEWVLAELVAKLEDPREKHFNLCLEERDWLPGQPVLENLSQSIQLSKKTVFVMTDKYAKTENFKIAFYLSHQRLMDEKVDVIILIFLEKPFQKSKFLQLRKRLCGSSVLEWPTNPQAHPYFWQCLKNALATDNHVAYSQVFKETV
The description is as §1.

By EC50 is commonly meant the concentration that produces a half-maximal response.

SMILES strings stand for the structures.

As to `CCCN(CCC)C(=O)C1=Cc2ccc(C(=O)N3CC(OCc4ccccc4)C3)cc2N=C(N)C1`, the half-maximal effective concentration (EC50) is 0.004 µM in test [1] and 15 µM in test [2].

Source of the values: ChEMBL document CHEMBL5727241, “Benzazepine dicarboxamide compounds with tertiary amide function” (2019).
